Reference: US6582713B2, “Compositions and methods for promoting wound healing” (Univ. of Colorado - Colorado Springs, priority 2000, dated 2003)
Several values for one entry are separate records, joined by “and”; a condition that tells them apart may be missing. Identical values can stand only once. Marks after values point to notes of the source that are not given here.

How the values were obtained:
[1] = Blood glucose level after treatment injected into incision sealed with cyanoacrylate; format: in vivo, mice; conditions: for Blood Glucose Level: individual mice
Procedure: Twelve mice were used in the study. Each mouses' blood glucose level was tested at the start of the study. The mice were then weighted and anesthetized. The back of the neck was shaved and a single incision was made. The incision was then sealed with cyanoacrylate polymer which was applied and allowed to set for 1½ minutes. The treatment (glucose, water, insulin, or insulin plus glucose) as described above were injected into the incision. […] On day 1, blood glucose was again measured and the wound was photographed. This was repeated on days 3, 5, and 7. Mouse numbers 1, 2, and 3 received glucose treatment. Mouse numbers 4, 5, and 6 received water (control). Mouse numbers 7, 8, and 9 received insulin plus glucose. Mouse numbers 10, 11, and 12 received insulin.

unsealed wound = experiment: Effect of three day insulin treatment on unsealed wound in vivo; design: species or system mice; conditions: 100 micro liters applied to unsealed incision, photographs daily for one week
Description: Six mice were anesthetized with avetin Q 15-18 micro liters per gram body weight. An area on the back of the neck was swabbed with alcohol and shaved. A single vertical incision was made with scissors. One hundred micro liters of insulin was applied to three mice and 100 micro liters of water was applied to the other three. Photographs of the wounds were taken on a daily basis for one week.

With insulin the “Blood Glucose Level” value ([1]; 0 Hr (start of study, before treatment)) was 89 mg/dL and 104 mg/dL and 118 mg/dL, the “Blood Glucose Level” value ([1]; 0.5 Hr, incision sealed with cyanoacrylate) was 58 mg/dL and 36 mg/dL and 46 mg/dL and the “Blood Glucose Level” value ([1]; 3.0 Hr., incision sealed with cyanoacrylate) was less than 25 mg/dL. The “Blood Glucose Level” value ([1]; 21 Hr., incision sealed with cyanoacrylate) was <25 mg/dL (2×) and 113 mg/dL, the “Blood Glucose Level” value ([1]; 69 Hr., incision sealed with cyanoacrylate) was <25* mg/dL and 109 mg/dL and the death of mouse ([1]; by 69 Hr., individual mouse) was “Died”. The “effect on levels of blood glucose compared with control water treatment” value ([1]; summary of Table 1) was “dramatic effects” and the “wound healing compared with water” value (unsealed wound) was “More complete wound healing”.
